Source: PubChem BioAssay (NCI)
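Step 1: Grow cells in 96-well plates. Step 2: Expose to compound for 48 hours at 5 concentrations. Step 3: Interpolate endpoints linearly; if unreached, use highest concentration. TGI: total growth inhibition.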

What was measured:
Test in all cases: NCI anticancer screen, dose series, 48 h
[1] = system: UACC-62 melanoma
[2] = system: SNB-75 CNS
[3] = system: MDA-MB-231 breast
[4] = system: UACC-257 melanoma
[5] = system: NCI-H522 lung
[6] = system: SW-620 colon
[7] = system: A549 NSCLC
[8] = system: HL-60(TB) leukemia
[9] = system: NCI/ADR-RES ovarian
[10] = system: OVCAR-8 ovarian

Structure (SMILES)	TGI [1]	TGI [2]	TGI [3]	TGI [4]	TGI [5]	TGI [6]	TGI [7]	TGI [8]	TGI [9]	TGI [10]
Brc1ccc(-c2nc(-c3ccc(Br)cc3)n(-c3ccccc3)n2)cc1	> 100 µM	> 100 µM	> 100 µM	> 100 µM	> 100 µM	> 100 µM	> 100 µM	> 100 µM	> 100 µM	> 100 µM
O=C(/C=C/c1ccc(Cl)cc1)c1ccc(Cl)s1	93 µM	> 100 µM	> 100 µM	> 100 µM	> 100 µM	55 µM	> 100 µM	> 100 µM	> 100 µM	> 100 µM
CCOP(=O)(/C=C/n1cnc2c(=O)n(C(C)=O)c(N)nc21)OCC	> 100 µM	> 100 µM	> 100 µM	> 100 µM	> 100 µM	> 100 µM	> 100 µM	> 100 µM	> 100 µM	> 100 µM
CC(C)=NNc1ncnc2nc[nH]c12	20 µM	> 79.6 µM	> 94.3 µM	> 100 µM	32.2 µM	> 100 µM	> 72.4 µM	> 72.5 µM	> 100 µM	> 100 µM
COC1(c2ccccc2)NC(=S)NN=C1c1ccccc1 (stereo not given)	> 100 µM	97.5 µM	70.9 µM	> 100 µM	73.8 µM	> 100 µM	> 100 µM	54.5 µM	37.7 µM	84 µM
CC(=O)N1c2ccccc2[C@H]2CCc3c([nH]c4ccccc34)[C@H]21	27.7 µM	63 µM	31.5 µM	> 100 µM	51.3 µM	37.3 µM	67.3 µM	34.2 µM	> 100 µM	> 100 µM
O=C(c1ccccc1)c1ccc2nc3n(c2c1)C(c1c(Cl)cccc1Cl)SC3 (stereo not given)	> 36.5 µM	18.9 µM	> 100 µM	> 100 µM	5.1 µM	> 100 µM	54.7 µM	> 53.5 µM	35.8 µM	> 55.5 µM
O=S(=O)(O)c1ccc2c(N=Nc3c(O)ccc4ccccc34)cccc2c1	> 100 µM	> 100 µM	> 100 µM	> 100 µM	> 100 µM	> 100 µM	> 100 µM	> 100 µM	> 100 µM	> 100 µM
Cc1cc2c3c(c1)CCCN3CCC2	> 10 µM	> 10 µM	> 10 µM	> 10 µM	> 10 µM	> 10 µM	> 10 µM	> 10 µM	> 10 µM	> 10 µM
CCN(CCCl)c1cc(CN(C)C)cc(NC(=O)c2cc(C(=O)Nc3cc(CN(C)C)cc(N(CC)CCCl)c3)n(C)n2)c1	2.36 µM	2.55 µM	4.06 µM	2.89 µM	0.384 µM	0.304 µM	1.8 µM	4.04 µM	32.3 µM	1.13 µM
CC(=O)OC1CC[C@@]2(C)C(=CC[C@@H]3[C@@H]2CC[C@]2(C)C(OC(C)=O)[C@H](n4ccnc4)C[C@@H]32)C1 (stereo not given in full)	30.3 µM	> 100 µM	> 100 µM	31.1 µM	40.9 µM	> 100 µM	> 100 µM	35.6 µM	> 100 µM	44.2 µM
COc1cccc(/C=C2/S/C(=N/Nc3nc(C)c(C(C)=O)s3)NC2=O)c1O	43.9 µM	> 100 µM	44.8 µM	86.2 µM	33.2 µM	> 100 µM	> 100 µM	46 µM	> 100 µM	> 100 µM
Clc1ccc(Cn2cc(/C=N/n3cnnc3)c3ccccc32)cc1	> 100 µM	68.5 µM	74.5 µM	> 100 µM	> 100 µM	> 100 µM	> 100 µM	> 100 µM	> 100 µM	> 100 µM
COC(=O)C1(Cc2ccccc2)Cc2c(C)ccc(C)c2C1=O (stereo not given)	54.8 µM	61.3 µM	38.4 µM	64.9 µM	56.2 µM	> 100 µM	36.4 µM	54 µM	> 100 µM	52.1 µM
NC(N)=N/N=C\c1c(-c2ccccc2)nc2sccn12	29.4 µM	24.8 µM	27.3 µM	26.3 µM	24.6 µM	28.1 µM	31.8 µM	53.3 µM	34.9 µM	30.9 µM
Nc1nc2c(c(=O)[nH]1)NC(CCNc1ccc(C(=O)O)cc1)CN2 (stereo not given)	> 100 µM	> 100 µM	> 100 µM	> 100 µM	> 100 µM	> 100 µM	> 100 µM	> 100 µM	> 100 µM	> 100 µM
CN(CCCNC(=O)c1c2ccc3ccccc3c2nn1C)CCCNC(=O)c1c2ccc3ccccc3c2nn1C	3.76 µM	21.4 µM	25.8 µM	3.57 µM	19.7 µM	21.3 µM	26.9 µM	29.8 µM	29.3 µM	27.2 µM
Cc1cc(C)nc(NC(=S)Nc2ccc(Cl)cc2)c1	> 100 µM	63.7 µM	> 100 µM	> 100 µM	39.1 µM	> 100 µM	> 100 µM	> 100 µM	> 100 µM	71.5 µM
